# Reference: ChEMBL document CHEMBL1158268, “Antiplatelet of vasorelaxing actions of some benzylisoquinoline and phenanthrene alkaloids” (1996)
# Assays:
# Design in all cases: scale not given: the % may be the effect or the level left
# [1] = system: Aorta; experiment: Vasorelaxant activity against norepinephrine-induced tonic contraction in Wistar rat thoracic aorta at 100 ug/ml; type: functional
# [2] = system: Aorta; experiment: Vasorelaxant activity against high potassium-induced contraction in Wistar rat thoracic aorta at 100 ug/ml; type: functional
# [3] = system: Platelet; experiment: Inhibition of collagen-induced platelet aggregation in rabbit platelet-rich plasma at 100 ug/ml by turbidimetric method; type: functional, Oryctolagus cuniculus
# [4] = system: Platelet; experiment: Inhibition of arachidonic acid-induced platelet aggregation in rabbit platelet-rich plasma at 100 ug/ml by turbidimetric method; type: functional, Oryctolagus cuniculus
# [5] = system: Platelet; experiment: Inhibition of adenosine diphosphate-induced platelet aggregation in rabbit platelet-rich plasma at 100 ug/ml by turbidimetric method; type: functional, Oryctolagus cuniculus
# [6] = system: Platelet; experiment: Inhibition of platelet-activity factor-induced platelet aggregation in rabbit platelet-rich plasma at 100 ug/ml by turbidimetric method; type: functional, Oryctolagus cuniculus
# [7] = system: Aorta; experiment: Vasorelaxant activity against norepinephrine-induced phasic contraction in Wistar rat thoracic aorta at 100 ug/ml; type: functional
# [8] = system: Aorta; experiment: Vasorelaxant activity against norepinephrine-induced phasic contraction in Wistar rat thoracic aorta at 20 ug/ml; type: functional
# [9] = system: Aorta; experiment: Vasorelaxant activity against high potassium-induced contraction in Wistar rat thoracic aorta at 20 ug/ml; type: functional
# [10] = system: Aorta; experiment: Vasorelaxant activity against norepinephrine-induced tonic contraction in Wistar rat thoracic aorta at 20 ug/ml; type: functional
# [11] = system: Platelet; experiment: Inhibition of arachidonic acid-induced platelet aggregation in rabbit platelet-rich plasma at 25 ug/ml by turbidimetric method; type: functional, Oryctolagus cuniculus
# [12] = system: Platelet; experiment: Inhibition of collagen-induced platelet aggregation in rabbit platelet-rich plasma at 25 ug/ml by turbidimetric method; type: functional, Oryctolagus cuniculus
# [13] = system: Platelet; experiment: Inhibition of adenosine diphosphate-induced platelet aggregation in rabbit platelet-rich plasma at 25 ug/ml by turbidimetric method; type: functional, Oryctolagus cuniculus
# [14] = system: Platelet; experiment: Inhibition of platelet-activity factor-induced platelet aggregation in rabbit platelet-rich plasma at 25 ug/ml by turbidimetric method; type: functional, Oryctolagus cuniculus
# [15] = system: Aorta; experiment: Vasorelaxant activity against norepinephrine-induced phasic contraction in Wistar rat thoracic aorta at 50 ug/ml; type: functional
# [16] = system: Platelet; experiment: Inhibition of adenosine diphosphate-induced platelet aggregation in rabbit platelet-rich plasma at 50 ug/ml by turbidimetric method; type: functional, Oryctolagus cuniculus
# [17] = system: Platelet; experiment: Inhibition of platelet-activity factor-induced platelet aggregation in rabbit platelet-rich plasma at 50 ug/ml by turbidimetric method; type: functional, Oryctolagus cuniculus
# [18] = system: Aorta; experiment: Vasorelaxant activity against high potassium-induced contraction in Wistar rat thoracic aorta at 50 ug/ml; type: functional
# [19] = system: Aorta; experiment: Vasorelaxant activity against norepinephrine-induced tonic contraction in Wistar rat thoracic aorta at 50 ug/ml; type: functional
# [20] = system: Platelet; experiment: Inhibition of arachidonic acid-induced platelet aggregation in rabbit platelet-rich plasma at 50 ug/ml by turbidimetric method; type: functional, Oryctolagus cuniculus
# [21] = system: Platelet; experiment: Inhibition of collagen-induced platelet aggregation in rabbit platelet-rich plasma at 50 ug/ml by turbidimetric method; type: functional, Oryctolagus cuniculus
# [22] = system: Aorta; experiment: Vasorelaxant activity against high potassium-induced contraction in Wistar rat thoracic aorta at 1 ug/ml; type: functional
# [23] = system: Aorta; experiment: Vasorelaxant activity against norepinephrine-induced phasic contraction in Wistar rat thoracic aorta at 1 ug/ml; type: functional
# [24] = system: Aorta; experiment: Vasorelaxant activity against norepinephrine-induced tonic contraction in Wistar rat thoracic aorta at 1 ug/ml; type: functional
SMILES,Activity [1] [%],Activity [2] [%],Activity [3] [%],Activity [4] [%],Activity [5] [%],Activity [6] [%],Activity [7] [%],other results
COc1cc2c(cc1OC)C(Cc1ccc(O)cc1)NCC2 (racemic),95.7,107.8,24.7,49.7,30.4,86.4,103,
COc1cc2c(cc1O)C(Cc1ccc(O)cc1)NCC2 (racemic) [COCLAURINE],93.7,109.9,69.7,0,70.2,72.7,100,
COc1cc2c(cc1O)C(Cc1ccc(O)cc1)N(C)CC2 (racemic) [METHYL COCLAURINE],,,24.8,13.8,73.6,75.7,,Activity [8]: 149.6%; Activity [9]: 70.8%; Activity [10]: 106.6%
COc1ccc(C[C@H]2c3cc(O)c(OC)cc3CCN2C)cc1O [(S)-RETICULINE],110.5,109.3,84.2,39.2,58.7,85.9,100,
CC(=O)Oc1ccccc1C(=O)O [ASPIRIN],,,,,,,,Activity [11]: 0%; Activity [12]: 87.8%; Activity [13]: 77.9%; Activity [14]: 90.4%
COc1cc(CCN(C)C)c2ccc3ccccc3c2c1OC.[O-][Cl+3]([O-])([O-])O [ATHEROSPERMININE HCLO4],0,0,0,0,0,0,0,
COc1cc(CC[N+](C)(C)C)c2ccc3ccccc3c2c1OC.[I-] [ATHEROSPERMINIUM I],,,0,0,0,0,,Activity [8]: 108.3%; Activity [9]: 38.3%; Activity [10]: 100.5%
COc1ccc(C[C@H]2c3cc(OC)c(OC)cc3CCN2C)cc1O [LAUDANIDINE],,,,,,,,Activity [15]: 58.5%; Activity [16]: 77.6%; Activity [17]: 90%; Activity [18]: 105%; Activity [19]: 80.9%; Activity [20]: 89%; Activity [21]: 87.9%
COc1cc2c(cc1O)[C@@H](Cc1ccc(O)cc1)[N+](C)(C)CC2.[I-] [MAGNOCURARINE IODIDE],123.5,134.7,87.7,87.4,69,23.2,122.5,
COC(=O)C1=C(C)NC(C)=C(C(=O)OC)C1c1ccccc1[N+](=O)[O-] [NIFEDIPINE],,,,,,,,Activity [22]: 0%
COc1cc2c(cc1OC)[C@H](Cc1ccc(O)cc1)NCC2 [NORARMEPAVINE],105.7,71.2,83.4,75.5,69.7,57.8,121.9,
COc1cc2nc(N3CCN(C(=O)c4ccco4)CC3)nc(N)c2cc1OC [PRAZOSIN],,,,,,,,Activity [23]: 0%; Activity [24]: 100%
